Columns and labels:
[1] = molecular target: T1, Methanobacterium ivanovii SUMT (Methanobacterium ivanovii, UniProt P29564); test: Catalytic properties of purified M. ivanovii SUMT; type: biochemical
T1 construct: endogenous in cells; host or cells: Methanobacterium ivanovii DSM2611 (enzyme purified to homogeneity from the natural organism)
T1 sequence (P29564 2-231 limits assumed): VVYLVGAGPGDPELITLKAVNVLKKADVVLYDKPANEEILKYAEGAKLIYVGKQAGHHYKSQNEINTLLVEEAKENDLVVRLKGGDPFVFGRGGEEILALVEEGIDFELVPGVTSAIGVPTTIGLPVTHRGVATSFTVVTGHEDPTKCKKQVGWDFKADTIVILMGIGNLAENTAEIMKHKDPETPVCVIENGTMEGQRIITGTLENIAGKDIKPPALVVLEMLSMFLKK
Description: Methanobacterium ivanovii strain DSM2611 is cultured as described (Souillard et al., 1988). Wet cells (12 g) are obtained. The latter are resuspended in 0.1 M Tris-HCl buffer pH 7.6 (80 ml) containing 5 mM DTT and 1 mM EDTA, and sonicated for 1 h 30 min at 4° C. and then centrifuged for 1 h at 50,000 g. Free tetrapyrrole compounds are then cleared from the extract by passage through a small DEAE-Sephadex A25 column set up in the same buffer. The proteins precipitating at between 55 and 75% ammonium sulphate saturation are solubilised in a 0.1 M Tris-HCl pH 7.5, 0.5 mM DTT, 1.7 M ammonium sulphate buffer and injected onto a Phenyl-Superose HR 10/10 (Pharmacia France/SA) column eluted with a decreasing gradient (1.7 M to 0 M with respect to ammonium sulphate). The active fractions are passed through a Sephadex G-25 column equilibrated with 0.1 M Tris-HCl pH 7.5, 0.5 mM DTT, 25% glycerol buffer (buffer A), then injected onto a Mono Q HR 5/5 (Pharmacia France SA) column equilibrated with buffer A and eluted with a KCl gradient of 0 to 0.3 M; this step is repeated a second time under the same conditions. Gel permeation chromatography of the active fraction of the preceding step on Bio-Sil TSK-250 (BioRad France SA) enables a protein which is homogeneous in SDS-PAGE and in RP-HPLC (C-18 pBondapak) to be obtained. The different steps of purification, with their yield, as well as their purification factor, are described in the table below.
As shown in this table, the total purification factor is more than 4,500. Some properties of the pure enzyme have been studied according to methods already described (Blanche et al., 1989). This enzyme does indeed have SUMT activity, i.e. it does indeed catalyse the SAM-dependant transfer of two methyl groups at C-2 and at C-7 of uro'gen III.
The Vmax of M. ivanovii SUMT was determined. It is 1537 U/mg of proteins. This value is greater than that found for P. denitrificans SUMT, already determined under optimal conditions for the reaction (taking account of its inhibition by uro'gen III), 489 U/mg of proteins (Blanche et al., 1989).

[2] = molecular target: Pseudomonas denitrificans SUMT (Sinorhizobium sp, UniProt P21631); settings: cited from earlier work
Sequence of Pseudomonas denitrificans SUMT (P21631 whole entry): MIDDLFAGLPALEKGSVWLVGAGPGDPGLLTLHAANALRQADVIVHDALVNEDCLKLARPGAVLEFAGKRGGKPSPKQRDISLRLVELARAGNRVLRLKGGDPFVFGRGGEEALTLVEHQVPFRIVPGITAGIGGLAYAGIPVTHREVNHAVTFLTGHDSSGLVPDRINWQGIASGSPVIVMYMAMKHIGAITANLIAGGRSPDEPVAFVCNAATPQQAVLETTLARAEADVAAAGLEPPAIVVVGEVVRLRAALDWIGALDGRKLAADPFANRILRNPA

[3] = test system: crude extract of strain SC510 Rif^r; test: Enzymatic chelation with cobalt in crude extract of strain SC510 Rif^r; type: biochemical, Pseudomonas denitrificans; settings: 7 mM ATP, 200 μM CoCl2
Description: A crude extract of strain SC510 Rif^r is obtained by sonication of wet cells (10 g) in 0.2 M Tris-HCl buffer pH 8.0 (20 ml), followed by removal of the cell debris by centrifugation for 1 h at 50,000×g. Proteins (1000 mg) of this extract are incubated for 1 h at 30° C. with carbon-14-labelled hydrogenobyrinic acid diamide (32 nmol; 50 μCi/μmol) in 0.2 M Tris-HCl buffer pH 8.0 (40 ml) containing 7 mM ATP and 200 μM CoCl2. The reaction is stopped by adding 1 M KH2PO4 (7.5 ml) and 0.3 M KCN (6 ml), followed by heating for 10 min at 80° C. […] To confirm that the product is indeed cobyrinic acid a,c-diamide, the product is purified by HPLC and then esterified in methanol containing 5% of sulphuric acid (18 h, 20° C.). […] It should be noted that, under similar incubation conditions in which the radioactive labelling is introduced, not into the hydrogenobyrinic acid a,c-diamide, but into the cobalt (using cobalt-57), cobalt-57-labelled cobyrinic acid a,c-diamide is biosynthesised and the same conclusions could be drawn.

Row | Molecule | inhibition by substrate ([1]; at concentrations below 20 μM) | Km ([1]; conditions of Blanche et al., 1989) [µM] | concentration above which inhibition by uro'gen III is shown [2] | substrate for enzymatic chelation with cobalt [3]
1 | uroporphyrinogen III [uro'gen III] | does not show inhibition by substrate | 0.052 | above 2 μM | 
2 | C/C1=C2N=C(/C=C3\N/C(=C(/C)C4=NC(C)(C5N=C1C(C)(CCC(=O)O)C5CC(=O)O)C(C)(CC(=O)O)C4CCC(=O)O)C(C)(CC(=O)O)C3CCC(=O)O)C(C)(C)C/2CCC(=O)O (stereo not shown) [hydrogenobyrinic acid] |  |  |  | not a substrate
